This is an account of results in the pKa sets of Baltruschat and Czodrowski (2020).

Regarding `NCCc1ccc(O)c(O)c1`, the pKa – broadly, the negative logarithm of the acid dissociation constant – (acidic group) was determined as 10.6 and the pKa (basic group) stood at 8.89. For the compound `Cc1cc(C)c(O)cc1C`, the pKa (acidic group) was 10.6.

Take `Cc1ncc(CO)c(CN)c1[O-]`: the pKa (basic group) worked out at 10.3.

Turning to `CC1=C(CC(C)NCC(O)c2ccc([N+](=O)[O-])cc2)CCC1(C)C` (stereo unspecified), the pKa (basic group) stood at 8.36. The compound `O=C(CC(=O)c1ccccc1)Nc1cccc([N+](=O)[O-])c1` displayed a pKa (acidic group) of 9.54. Where the note is “acidic group”, `CC(=O)/C(C[NH+]1CCCCC1)=N\O` came in with a pKa of 7.05. The compound `Nc1nnnn1-c1ccc([N+](=O)[O-])cc1` yielded a pKa (basic group) of 0.34. Under “acidic group”, `O=S(=O)(Nc1ccc(Br)cc1)c1ccccc1` gave a pKa of 7.78. For the compound `Cc1ccc(NN=C(C#N)C#N)c([N+](=O)[O-])c1`, the pKa is 6 (acidic group) and -0.78 (basic group). Turning to `CCN(C#N)CC`, the pKa (basic group) was -2. As for `O=C(Cc1ccncc1)c1ccccc1`, the pKa by setting is: (acidic group) 12.7; (basic group) 4.63.

`O=C(Oc1ccc([N+](=O)[O-])cc1)C1c2ccccc2-c2ccccc21`: the pKa (acidic group) amounted to 9.9. `CN(C)Cc1cc(Cl)ccc1[O-]` had a pKa (basic group) of 11. For the setting “acidic group”, `Cc1ccc(C(=O)O)cc1Br` showed a pKa of 3.96. Same read-out and setting: to `NC(=O)C(N)Cc1ccccc1` (stereo unspecified) belongs 7.33; to `CCOC(=O)C(=NO)C(=O)OCC`, 5.48. The same measure, in the same setting: to `O=C1NC(=O)C(=NO)C(=O)N1` belongs 4.58. Still for that read-out and setting: the same measure for `Cc1ccc(C(=O)Oc2ccccc2)c(O)c1`: 9.44. `CN(C)c1ccc(C#N)cc1` yielded a pKa (basic group) of 1.78. On to `CC[NH+](CC)CCOc1ccccc1C(=O)NO`, for which the pKa (acidic group) was determined as 8.42. For the setting “basic group”, `CCC1CN1` (stereo unspecified) came in with a pKa of 5.69. `Oc1cnc2ccccc2c1`: the pKa turned out to be 8.06 (acidic group) and 4.3 (basic group). For the setting “basic group”, `COc1c(C)cccc1C(=O)N[C@@H]1C[C@H]2CC[C@@H](C1)N2Cc1ccccc1` registered a pKa of 8.92. On to `Cc1ccc(S(=O)(=O)NCCC(=[NH2+])N(C)C)cc1`, for which the pKa (acidic group) was 9.84.

`Cc1cnc(N)s1` registered a pKa (basic group) of 5.71. On the same count and under the same terms, the same measure for `Cc1ccc(NCO)cc1`: 3.42; for `Nc1ccccc1[NH3+]`: 1.3. The same measure, in the same setting: the same measure for `NC(Cc1ccccc1)c1nnn[n-]1` (stereo unspecified): 8.18; for `CN(CC1CO1)CC1CO1` (stereo unspecified): 6.45; for `OCn1cnc2ccccc21`: 5.44. Take `Cc1cc(Cl)n(C)c2nc3ccccc3c1-2`: the pKa (basic group) turned out to be 7.45.

`CCCCCCCCCCCCN(CCO)CC(C)O` (stereo unspecified) showed a pKa (basic group) of 6.5. For the setting “acidic group”, `CC(=O)N1CS(=O)C[C@H]1C(=O)O` (stereo partly specified) had a pKa of 2.5.

Take `Cc1ncnc2nc[nH]c12`: the pKa by setting is: (acidic group) 9.21; (basic group) 2.6.

Consider `O=C(O)CCc1ccccc1`, for which the pKa (acidic group) was determined as 4.59. Turning to `CCOC(=O)/C(C)=N/O`, the pKa (acidic group) was found to be 9.64. In the case of `Oc1ccc2[nH]cnc2c1`, the pKa was 10 (acidic group) and 5.69 (basic group). `COc1ccc2c(c1OC(C)=O)[C@]13CCN(C)[C@H](C2)[C@@H]1CC[C@H](OC)C3` gave a pKa (basic group) of 9.31. With `COc1cc(C=O)ccc1O`, the pKa (acidic group) turned out to be 7.38. With `CC(C)(C)c1cc([N+](=O)[O-])cc(C(C)(C)C)c1O`, where the note is “acidic group”, the pKa is 6.92. For `Cc1ccc(N2CCCC(=O)C(O)CCC2)cc1` (stereo unspecified), where the note is “basic group”, the pKa worked out at 3.2. Still for that read-out and setting: to `C[NH+](C)CCCCNc1c2ccccc2nc2cccc([N+](=O)[O-])c12` belongs 6.9. Compound `Cc1cccc(C)c1NC(=S)c1ccccc1` showed a pKa (acidic group) of 10.8.

`Cc1ccc(CCN)cc1` displayed a pKa (basic group) of 9.78. Take `O=C(CCN1CCOCC1)C(c1ccccc1)c1ccccc1`: the pKa (basic group) stood at 6.39. Still for that read-out and setting: to `CN1Cc2c(ccc3c2OCO3)-c2ccc3cc4c(cc3c21)OCO4` belongs 2.6; to `C[C@H]1O[C@H](O[C@H]2CC[C@H](n3ccc(N)nc3=O)O[C@@H]2C)[C@H](O)[C@@H](O)[C@@H]1N(C)C`, 7. In the case of `C[S+](C)CC(=O)c1ccccc1`, where the note is “acidic group”, the pKa was 8.6.

In the case of `CC(C)(C)C(=O)n1cnc2ccccc21`, the pKa (basic group) was 2. The same measure, in the same setting: the same measure for `O=C([O-])C#CCN1CCOCC1`: 5.57.
